Experimental findings from patent US9125824B1 (InnoVitamin Organics, LLC, priority 2010, dated 2015) are described below.

The data set in a line: storage stability of trans-resveratrol under controlled temperature and humidity. It is filed as physicochemical. Conditions: stored at 10.0° C. (50 degrees F.) to approximately 30° C. (86 degrees F.), humidity less than 35 percent. As to the method:
(50 degrees F.) to approximately 30° C.
Twenty five (25) kilograms of fine powder consisting of pomace, vines and leaves is stored in a cool, dark, dry location for shipping to the dietary supplement manufacturing facility. The temperature range of the storage area is in a range of between approximately 10.0° C. (50 degrees F.) to approximately 30° C. (86 degrees F.) and the dry location has a humidity level of less than 35 percent water vapor in the air.

Molecules are shown by their SMILES.

Consider `Oc1ccc(/C=C/c2cc(O)cc(O)c2)cc1` [trans-resveratrol], for which the “stability during storage and processing” value was “remain stable”. Further, the “stability during storage and processing” value (listed as organic trans-resveratrol) is on record as “remains a stable compound”.
